{"source": "patent US20100239500A1", "about": "“SUBSTITUTED TRIAZINE COMPOUNDS FOR NERVE REGENERATION” (priority 2007, published 2010)", "key": {"[1]": {"tested_on": "cerebellar granule neurons (CGNs)", "assay": "Neurite growth of CGNs on CSPG substrates", "type": "cell-based", "settings": "laminin/CSPG substrate", "description": "(§1) The triazine compounds were added to cultures of primary cerebellar granule neurons (CGNs) to test their ability to promote neurite growth on an inhibitory substrate (PDL/central nervous system myelin). […] The compounds can promote growth on other inhibitory substrates as well. When a mixture of inhibitory chondroitin sulfate proteoglycans (CSPGs) on PDL was used as a substrate, neurite growth of CGNs was increased by each compound, as shown in FIG. 3. The compounds evidently act by overcoming inhibitory signals."}, "CGNs": {"tested_on": "CGNs", "assay": "Neurite growth of CGNs on permissive substrates (PDL, laminin)", "type": "cell-based", "settings": "CGNs on PDL or laminin (LN)", "description": "CGNs were cultured on PDL or laminin (LN) substrates in the absence or presence of one of the four lead compounds, or on LN in the presence of Gö6976. Neurons grew neurites on PDL, and grew longer neurites on LN.\nas §1"}, "E15 rat spinal neurons": {"tested_on": "E15 rat spinal neurons", "assay": "Growth of spinal neurons on CSPG substrates", "type": "cell-based", "settings": "two days", "description": "E15 rat spinal neurons were cultured on LN, or on LN and CSPGs (LN/CSPG) for two days. They were stained for nuclei (blue) and neuronal beta-tubulin (green)."}, "[2]": {"tested_on": "cerebellar granule neurons (CGNs)", "assay": "High-content screen and dose-response of CGN neurite growth on PDL/myelin", "type": "cell-based", "settings": "library compounds at 5 μM shown", "description": "FIG. 2 is data from a high-content screen of neurite growth on […] (PDL)/myelin. The data for 312 compounds are summarized for total neurite growth normalized to the PDL control. The first three bars show PDL (blue), PDL/myelin (red), and PDL/myelin/dbcAMP (green). […] Straight lines drawn across data represent growth levels with dbcAMP, PDL, myelin, and 50% of the myelin level. The majority of compounds had little or no effect at the concentrations tested (5 μM is shown). […] These four compounds are subsequently referred to as lead compounds.\nCGNs were cultured on PDL (control) or on myelin in the presence of the 4 hit compounds at concentrations (in nM) shown. The Cellomics Kinetic Scan Reader (an automated microscope) was used to evaluate average neurite length per neuron in each condition. Growth on myelin in the absence of compounds was set at 100% (origin of y-axis). The black horizontal line represents growth on the control (PDL) substrate; thus growth at or above this line represents complete reversal of the myelin inhibition. Each compound completely reversed growth inhibition by the myelin.\nThe triazine compounds were added to cultures of primary cerebellar granule neurons (CGNs) to test their ability to promote neurite growth on an inhibitory substrate (PDL/central nervous system myelin). […] The compounds can promote growth on other inhibitory substrates as well. […]"}, "cAMP levels in CGNs": {"tested_on": "cAMP levels in CGNs", "assay": "cAMP levels in CGNs", "type": "cell-based", "settings": "two hours, PDL or PDL/myelin, forskolin at concentrations indicated in chart", "description": "CGNs were cultured for two hours on PDL or on PDL/myelin in the absence or presence of the four lead compounds at […] (F) at the concentrations indicated in the chart. Forskolin increased neuronal cAMP levels by 100-250-fold, while the lead compounds produced no significant increases."}, "cPKC": {"tested_on": "cPKC", "assay": "In vitro PKC assay", "type": "biochemical", "settings": "preincubated directly with the enzyme; lead compounds at concentrations optimally effective on cells"}}}
{"compound": "Cn1c2ccccc2c2c3c(c4c5ccccc5n(CCC#N)c4c21)CNC3=O", "note": "[Go6976]", "values": [{"measurement": "neurite growth on LN/CSPG mixture", "setting": "[1]", "result": "largely reversed"}, {"measurement": "neurite growth on permissive substrates", "setting": "CGNs", "result": "significantly increased growth on LN"}, {"measurement": "growth of spinal neurons on LN/CSPG", "setting": "E15 rat spinal neurons", "result": "somewhat restored"}]}
{"compound": "CCCC(=O)Nc1ncnc2c1ncn2[C@@H]1O[C@@H]2COP(=O)(O)O[C@H]2[C@H]1OC(=O)CCC", "note": "[dbcAMP]", "values": [{"measurement": "total neurite growth normalized to the PDL control", "setting": "[2]", "result": "inhibition is overcome"}]}
{"compound": "C=C[C@@]1(C)CC(=O)[C@]2(O)[C@@]3(C)[C@@H](O)CCC(C)(C)[C@@H]3[C@H](O)[C@H](OC(C)=O)[C@@]2(C)O1", "note": "[Forskolin, forskolin]", "values": [{"measurement": "increase of neuronal cAMP levels", "setting": "cAMP levels in CGNs", "result": "100-250 fold"}]}
{"compound": "Calphostin C", "values": [{"measurement": "effect on cPKC activity", "setting": "cPKC", "result": "inhibits cPKC"}]}
